We go through 39 compounds from ChEMBL document CHEMBL1138031, “3D QSAR studies of N-4-arylacryloylpiperazin-1-yl-phenyl-oxazolidinones: a novel class of antibacterial agents” (2006).

For this test, the system named is Staphylococcus aureus. Kind of test: Antibacterial activity against Staphylococcus aureus ATCC 25923. To be noted: for MIC: Staphylococcus aureus, ATCC 25923. It is filed as functional.

SMILES strings stand for the structures. In brackets after ≈: the same amount, converted by molar mass. Where only a bound is given, the exact number is not on record here.

Usually MIC stands for the lowest concentration that inhibits growth of the organism. A higher MIC goes with a need for much substance. Take `CC(=O)NC[C@H]1CN(c2ccc(N3CCN(C(=O)/C=C/c4ccc(O)c(O)c4)CC3)c(F)c2)C(=O)O1`: the “Log (1/C)” value came to 1.4936 and the lowest concentration to inhibit growth (MIC) was 16 µg/mL (≈ 32.1 µM).
For the compound `CC(=O)NC[C@H]1CN(c2ccc(N3CCN(C(=O)/C=C/c4ccc(OC(=O)C(C)(C)C)cc4)CC3)c(F)c2)C(=O)O1`, the “Log (1/C)” value was 1.5492 and the MIC was more than 16 µg/mL.
Turning to `CC(=O)NC[C@H]1CN(c2ccc(N3CCN(C(=O)/C=C/c4ccc(F)c(F)c4)CC3)c(F)c2)C(=O)O1`, the “Log (1/C)” value was found to be 1.4971 and the MIC is more than 16 µg/mL.
Turning to `C/C(S)=N/C[C@H]1CN(c2ccc(N3CCN(C(=O)/C=C/c4ccccc4)CC3)c(F)c2)C(=O)O1`, the “Log (1/C)” value was found to be 3.2857 and the MIC was 0.25 µg/mL (≈ 0.518 µM).
Turning to `CC(=O)NC[C@H]1CN(c2ccc(N3CCN(C(=O)/C=C/c4ccc(OS(C)(=O)=O)cc4)CC3)c(F)c2)C(=O)O1`, the “Log (1/C)” value is 1.8456 and the lowest concentration to inhibit growth (MIC) was 8 µg/mL (≈ 14.3 µM).
Take `CC(=O)NC[C@H]1CN(c2ccc(N3CCN(C(=O)/C=C/c4ccncc4)CC3)c(F)c2)C(=O)O1`: the “Log (1/C)” value came to 2.3688 and it took 2 µg/mL (≈ 4.28 µM) to inhibit growth (MIC).
Take `CC(=O)NC[C@H]1CN(c2ccc(N3CCN(C(=O)/C=C/c4ccc[nH]4)CC3)c(F)c2)C(=O)O1`: the “Log (1/C)” value amounted to 2.3575 and the minimal inhibitory concentration (MIC) was 2 µg/mL (≈ 4.39 µM).
For `CC(=O)NC[C@H]1CN(c2ccc(N3CCN(C(=O)/C=C/c4ccsc4)CC3)c(F)c2)C(=O)O1` the same measures were 2.3735 and 2 µg/mL (≈ 4.23 µM).
As to `CC(=O)NC[C@H]1CN(c2ccc(N3CCN(C(=O)/C=C/c4ccc([N+](=O)[O-])o4)CC3)c(F)c2)C(=O)O1`, the “Log (1/C)” value is on record as 3.3024 and the minimum inhibitory concentration (MIC) amounted to 0.25 µg/mL (≈ 0.499 µM).
For the compound `CC(=O)NC[C@H]1CN(c2ccc(N3CCN(C(=O)/C=C/c4ccco4)CC3)c(F)c2)C(=O)O1`, the “Log (1/C)” value was found to be 2.3584 and the minimal inhibitory concentration (MIC) is 2 µg/mL (≈ 4.38 µM).
For `CC(=O)NC[C@H]1CN(c2ccc(N3CCN(C(=O)/C=C/c4cccs4)CC3)c(F)c2)C(=O)O1` the same measures were 2.6745 and 1 µg/mL (≈ 2.12 µM).
For the compound `CC(=O)NC[C@H]1CN(c2ccc(N3CCN(C/C=C/c4ccco4)CC3)c(F)c2)C(=O)O1`, the “Log (1/C)” value worked out at 2.0439 and the minimum inhibitory concentration (MIC) was 4 µg/mL (≈ 9.04 µM).
Turning to `CC(=O)NC[C@H]1CN(c2ccc(N3CCN(C(=O)/C=C/c4ccc(C)o4)CC3)c(F)c2)C(=O)O1`, the “Log (1/C)” value turned out to be 2.0706 and the minimum inhibitory concentration (MIC) turned out to be 4 µg/mL (≈ 8.5 µM).
For the compound `CC(=O)NC[C@H]1CN(c2ccc(N3CCN(C/C=C/c4ccc([N+](=O)[O-])o4)CC3)c(F)c2)C(=O)O1`, the “Log (1/C)” value came out at 2.387 and inhibition of growth (MIC) required 2 µg/mL (≈ 4.1 µM).
For `NC(=S)NC[C@H]1CN(c2ccc(N3CCN(C(=O)/C=C/c4ccco4)CC3)c(F)c2)C(=O)O1` the same measures were 2.6754 and 1 µg/mL (≈ 2.11 µM).
For the compound `CC(=O)NC[C@H]1CN(c2ccc(N3CCN(C(=O)/C=C/c4ccc(COC(C)=O)o4)CC3)c(F)c2)C(=O)O1`, the “Log (1/C)” value is 1.82 and the MIC was found to be 8 µg/mL (≈ 15.1 µM).
For `NC(=S)NC[C@H]1CN(c2ccc(N3CCN(C(=O)/C=C/c4cccs4)CC3)c(F)c2)C(=O)O1` the same measures were 2.9909 and 0.5 µg/mL (≈ 1.02 µM).
Turning to `CC(=O)NC[C@H]1CN(c2ccc(N3CCN(C(=O)/C=C/c4ccc(CO)o4)CC3)c(F)c2)C(=O)O1`, the “Log (1/C)” value is reported as 2.0851 and the MIC stood at 4 µg/mL (≈ 8.22 µM).
For `NC(=S)NC[C@H]1CN(c2ccc(N3CCN(C(=O)/C=C/c4ccncc4)CC3)c(F)c2)C(=O)O1` the same measures were 2.0833 and 4 µg/mL (≈ 8.25 µM).
Regarding `C/C(S)=N/C[C@H]1CN(c2ccc(N3CCN(C(=O)/C=C/c4cccs4)CC3)c(F)c2)C(=O)O1`, the “Log (1/C)” value came to 3.2911 and the MIC stood at 0.25 µg/mL (≈ 0.512 µM).
With `C/C(S)=N/C[C@H]1CN(c2ccc(N3CCN(C(=O)/C=C/c4ccc([N+](=O)[O-])o4)CC3)c(F)c2)C(=O)O1`, the “Log (1/C)” value is reported as 3.316 and the minimum inhibitory concentration (MIC) was 0.25 µg/mL (≈ 0.483 µM).
Consider `CC(=O)NC[C@H]1CN(c2ccc(N3CCN(C(=O)/C=C/c4ccc([N+](=O)[O-])s4)CC3)c(F)c2)C(=O)O1`, for which the “Log (1/C)” value turned out to be 3.316 and 0.25 µg/mL (≈ 0.483 µM) was the least that counted as inhibitory (MIC).
In the case of `CC(=O)NC[C@H]1CN(c2ccc(N3CCN(C(=O)/C=C/c4ccoc4)CC3)c(F)c2)C(=O)O1`, the “Log (1/C)” value was determined as 2.3584 and the minimal inhibitory concentration (MIC) came out at 2 µg/mL (≈ 4.38 µM).
Regarding `CC(=O)NC[C@H]1CN(c2ccc(N3CCN(C(=O)/C=C/c4c[nH]c5ccccc45)CC3)c(F)c2)C(=O)O1`, the “Log (1/C)” value is given as 2.4028 and the minimum inhibitory concentration (MIC) came to 2 µg/mL (≈ 3.96 µM).
Turning to `NC(=S)NC[C@H]1CN(c2ccc(N3CCN(C(=O)/C=C/c4ccc(O)cc4)CC3)c(F)c2)C(=O)O1`, the “Log (1/C)” value stood at 2.6986 and the MIC turned out to be 1 µg/mL (≈ 2 µM).
For `CC(=O)NC[C@H]1CN(c2ccc(N3CCN(C(=O)/C=C/c4cccnc4)CC3)c(F)c2)C(=O)O1` the same measures were 2.6698 and 1 µg/mL (≈ 2.14 µM).
For `CC(C)(C)C(=O)Oc1ccc(/C=C/C(=O)N2CCN(c3ccc(N4C[C@H](CNC(N)=S)OC4=O)cc3F)CC2)cc1` the same measures were 1.5621 and more than 16 µg/mL.
Take `CC(=O)NC[C@H]1CN(c2ccc(N3CCN(C(=O)/C=C/c4ccc(O)cc4)CC3)c(F)c2)C(=O)O1`: the “Log (1/C)” value is 2.3825 and the minimal inhibitory concentration (MIC) came to 2 µg/mL (≈ 4.14 µM).
Regarding `CC(=O)NC[C@H]1CN(c2ccc(N3CCN(C(=O)/C=C/c4cccc(O)c4)CC3)c(F)c2)C(=O)O1`, the “Log (1/C)” value came out at 2.3825 and inhibition of growth (MIC) required 2 µg/mL (≈ 4.14 µM).
Take `CC(=O)NC[C@H]1CN(c2ccc(N3CCN(C(=O)/C=C/c4ccccc4)CC3)c(F)c2)C(=O)O1`: the “Log (1/C)” value stood at 2.0669 and the MIC stood at 4 µg/mL (≈ 8.57 µM).
With `CC(=O)NC[C@H]1CN(c2ccc(N3CCN(C(=O)/C=C/c4ccc(C(=O)O)o4)CC3)c(F)c2)C(=O)O1`, the “Log (1/C)” value was 1.4953 and the minimal inhibitory concentration (MIC) was more than 16 µg/mL.
Consider `C/C(S)=N/C[C@H]1CN(c2ccc(N3CCN(C(=O)/C=C/c4ccncc4)CC3)c(F)c2)C(=O)O1`, for which the “Log (1/C)” value is given as 2.9855 and the MIC stood at 0.5 µg/mL (≈ 1.03 µM).
In the case of `CC(=O)NC[C@H]1CN(c2ccc(N3CCN(C(=O)/C=C/c4ccc(C=O)o4)CC3)c(F)c2)C(=O)O1`, the “Log (1/C)” value is 2.0833 and inhibition of growth (MIC) required 4 µg/mL (≈ 8.26 µM).
Take `C/C(S)=N/C[C@H]1CN(c2ccc(N3CCN(C(=O)/C=C/c4c[nH]c5ccccc45)CC3)c(F)c2)C(=O)O1`: the “Log (1/C)” value worked out at 3.0184 and 0.5 µg/mL (≈ 0.959 µM) was the least that counted as inhibitory (MIC).
As to `NC(=S)NC[C@H]1CN(c2ccc(N3CCN(C(=O)/C=C/c4c[nH]c5ccccc45)CC3)c(F)c2)C(=O)O1`, the “Log (1/C)” value was 3.3318 and the MIC worked out at 0.25 µg/mL (≈ 0.478 µM).
In the same order, the values of `C/C(S)=N/C[C@H]1CN(c2ccc(N3CCN(C(=O)/C=C/c4ccco4)CC3)c(F)c2)C(=O)O1` are 2.9755 and 0.5 µg/mL (≈ 1.06 µM).
In the same order, the values of `NC(=S)NC[C@H]1CN(c2ccc(N3CCN(C(=O)/C=C/c4ccccc4)CC3)c(F)c2)C(=O)O1` are 2.6845 and 1 µg/mL (≈ 2.07 µM).
Regarding `C/C(S)=N/C[C@H]1CN(c2ccc(N3CCN(C(=O)/C=C/c4ccc(O)cc4)CC3)c(F)c2)C(=O)O1`, the “log(1/C)” value came to 2.3967 and the minimal inhibitory concentration (MIC) was found to be 2 µg/mL (≈ 4.01 µM).
For the compound `CC(=O)NC[C@H]1CN(c2ccc(N3CCN(C(=O)CO)CC3)c(F)c2)C(=O)O1` [EPEREZOLID], the “Log (1/C)” value is 1.9939 and it took 4 µg/mL (≈ 10.1 µM) to inhibit growth (MIC).
